Experimental findings from patent publication US7388008B2, “Lysine based compounds” (priority 2004, dated 2008) are described below.

This data set is described as follows: Bioavailability: plasma concentration after single oral dose in rats. The data set is classed as in vivo, male Sprague-Dawley rats. As to conditions: for AUC: 50 mg/Kg po, rat plasma; for Delivery of parent drug (PL-100, PL-337) compared to non-aqueous formulations of PL-100 and PL-337: aqueous dosing; for Delivery of parent drug (PL-100, PL-337) compared to non-aqueous formulations of PL-100 and PL-337 / Administered compound detected in the blood samples: 50 mg/kg po, rat; for Administered compound detected in the blood samples: delivered as aqueous solutions. As for the experimental part: To assess the extent of in vivo cleavage of the phosphate group from the putative compounds, PL-100, PL-462 (based on PL-100), PL-337 and PL-515 (based on PL-337) compounds were administered po (50 mg/kg) to male Sprague-Dawley rats and their plasma concentration measured at different time intervals post-administration. All test articles (PL-100, PL-462, PL-337 and PL-515) were prepared in different vehicle at the final concentration of 25 mg/mL. The vehicle composition is as follows: (1) 20% ethanol; 50% propylene glycol; 0.05% w/v Tween 20 and water (Mix); (2) PBS buffer (PBS). Test articles were administered to male Sprague-Dawley rats at a single oral dose of 50 mg/kg. Each article was tested in three rats. Blood samples (0.2–0.3 mL) were collected at the post-dose time of 10, 20, 40, 60, 120, 180 and 360 minutes. The harvested blood was centrifuged to isolate plasma. The resulting plasma was separated and stored at −70° C. Plasma samples together with standards and quality control samples were treated to precipitate proteins, then analyzed by HPLC-MS, for the presence of PL-462, PL-100, PL-515 and PL-337.

The mark [1] stands for this setting: vehicle PBS, parent drug (PL-100 or PL-337) detected.
Where [2] appears, read: vehicle Mix (20% ethanol; 50% propylene glycol; 0.05% w/v Tween 20 and water).

For the compound `COC(=O)N[C@H](C(=O)NCCCC[C@@H](COP(=O)(O)O)N(CC(C)C)S(=O)(=O)c1ccc(N)cc1)C(c1ccccc1)c1ccccc1.[Na]` [PL-462, (1S,5S)-(1-{5-[(4-amino-benzenesulfonyl)-isobutyl-amino]-6-phosphonooxy-hexylcarbamoyl}-2,2-diphenyl-ethyl)-carbamic acid methyl ester sodium salt], the “Delivery of parent drug (PL-100, PL-337) compared to non-aqueous formulations of PL-100 and PL-337” value is “equivalent to slightly superior”; the “Administered compound detected in the blood samples” value was “None”. Moreover, under setting [1], the AUC is given as 0.816 μg/hr * ml.
The like results for `COC(=O)N[C@H](C(=O)NCCCC[C@@H](COP(=O)(O)O)N(CC(C)C)S(=O)(=O)c1ccc(N)c(F)c1)C(c1ccccc1)c1ccccc1` [PL-515, (1S,5S)-(1-{5-[(4-amino-3-fluoro-benzenesulfonyl)-isobutyl-amino]-6-phosphonooxy-hexylcarbamoyl}-2,2-diphenyl-ethyl)-carbamic acid methyl ester] were, in that order, “equivalent to slightly superior”, “None” and 1.075 μg/hr * ml.
In the case of `COC(=O)N[C@H](C(=O)NCCCC[C@@H](CO)N(CC(C)C)S(=O)(=O)c1ccc(N)c(F)c1)C(c1ccccc1)c1ccccc1` [PL-337, (1-{5-[(4-amino-3-fluoro-benzenesulfonyl)-isobutyl-amino]-6-hydroxy-hexylcarbamoyl}-2,2-diphenyl-ethyl)-carbamic acid methyl ester], the AUC under setting [2] is listed as 1.180 μg/hr * ml.
Same read-out and setting: the same measure for `COC(=O)N[C@H](C(=O)NCCCC[C@@H](CO)N(CC(C)C)S(=O)(=O)c1ccc(N)cc1)C(c1ccccc1)c1ccccc1` [PL-100, (1S,5S)-(1-{5-[(4-amino-benzenesulfonyl)-isobutyl-amino]-6-hydroxy-hexylcarbamoyl}-2,2-diphenyl-ethyl)-carbamic acid methyl ester]: 0.675 μg/hr * ml.
